One block for each molecule: values may come before it.
Tested on: 299254-011-R-J1-PDC complex spheroids viability
Assay: Anticancer human tumor 299254-011-R-J1-PDC patient-derived melanoma cell line growth inhibition [GQUAD]
Details: for IC50: curve of first compound; for viability, T/C: stronger effect = lower value
In short: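 Tumor cells were grown as complex spheroids with HUVEC endothelial cells and mesenchymal stem cells as stroma. G-quadruplex stabilizers were combined with targeted agents over half-log dilutions from near the clinical Cmax, or from 10 microM.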

[1] = second compound 0.0316 µM, first compound 0.0316 µM
[2] = second compound 0.0316 µM, first compound 0.316 µM
[3] = second compound 0.1 µM, first compound 0.0316 µM
[4] = second compound 0.1 µM, first compound 0.316 µM
[5] = second compound 0.316 µM, first compound 0.0316 µM
[6] = second compound 0.316 µM, first compound 0.316 µM
[7] = second compound 1 µM, first compound 0.0316 µM
[8] = second compound 1 µM, first compound 0.316 µM
[9] = second compound 3.16 µM, first compound 0.0316 µM
[10] = second compound 3.16 µM, first compound 0.316 µM
[11] = second compound 10 µM, first compound 0.0316 µM
[12] = second compound 10 µM, first compound 0.316 µM
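Further: spheroids exposed to the agents for seven days before readout.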
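Wherever viability, T/C is given: percent viability relative to DMSO vehicle control wells = 100%.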

Structure (SMILES): CC1COCCN1c1cc(C2(O)CC3CCC(C2)O3)c2cnn(-c3ccn[nH]3)c2n1 (centres undefined) + CN(C)c1ccc(Nc2c3ccc(NC(=O)CCN4CCCC4)cc3nc3cc(NC(=O)CCN4CCCC4)ccc23)cc1
- IC50 (second compound 0.0316 µM): 140 nM
- IC50 (second compound 0.1 µM): 99.8 nM
- IC50 (second compound 0.316 µM): 180 nM
- IC50 (second compound 1 µM): 137 nM
- IC50 (second compound 3.16 µM): 147 nM
- IC50 (second compound 10 µM): 117 nM
- viability, T/C [1]: 77.1%
- viability, T/C (second compound 0.0316 µM, first compound 0.1 µM): 60.4%
- viability, T/C [2]: 25.2%
- viability, T/C (second compound 0.0316 µM, first compound 1 µM): 18%
- viability, T/C (second compound 0.0316 µM, first compound 3.16 µM): 13.7%
- viability, T/C (second compound 0.0316 µM, first compound 10 µM): 6.37%
- viability, T/C [3]: 87%
- viability, T/C (second compound 0.1 µM, first compound 0.1 µM): 51.1%
- viability, T/C [4]: 24.2%
- viability, T/C (second compound 0.1 µM, first compound 1 µM): 17.4%
- viability, T/C (second compound 0.1 µM, first compound 3.16 µM): 12.4%
- viability, T/C (second compound 0.1 µM, first compound 10 µM): 5.43%
- viability, T/C [5]: 82.9%
- viability, T/C (second compound 0.316 µM, first compound 0.1 µM): 73%
- viability, T/C [6]: 27.6%
- viability, T/C (second compound 0.316 µM, first compound 1 µM): 16.7%
- viability, T/C (second compound 0.316 µM, first compound 3.16 µM): 9.78%
- viability, T/C (second compound 0.316 µM, first compound 10 µM): 5.4%
- viability, T/C [7]: 93.8%
- viability, T/C (second compound 1 µM, first compound 0.1 µM): 59.3%
- viability, T/C [8]: 25.9%
- viability, T/C (second compound 1 µM, first compound 1 µM): 17.8%
- viability, T/C (second compound 1 µM, first compound 3.16 µM): 12.5%
- viability, T/C (second compound 1 µM, first compound 10 µM): 5.02%
- viability, T/C [9]: 86.8%
- viability, T/C (second compound 3.16 µM, first compound 0.1 µM): 61%
- viability, T/C [10]: 27.7%
- viability, T/C (second compound 3.16 µM, first compound 1 µM): 19.2%
- viability, T/C (second compound 3.16 µM, first compound 3.16 µM): 14%
- viability, T/C (second compound 3.16 µM, first compound 10 µM): 6.53%
- viability, T/C [11]: 98.5%
- viability, T/C (second compound 10 µM, first compound 0.1 µM): 54%
- viability, T/C [12]: 25.9%
- viability, T/C (second compound 10 µM, first compound 1 µM): 13.8%
- viability, T/C (second compound 10 µM, first compound 3.16 µM): 15.2%
- viability, T/C (second compound 10 µM, first compound 10 µM): 7.27%

- IC50 (second compound 0.0316 µM): > 316 nM
- IC50 (second compound 0.1 µM): > 316 nM
- IC50 (second compound 0.316 µM): > 316 nM
- IC50 (second compound 1 µM): > 316 nM
- IC50 (second compound 3.16 µM): > 316 nM
- IC50 (second compound 10 µM): > 316 nM
Structure (SMILES): Cn1ncnc1[C@H]1c2n[nH]c(=O)c3cc(F)cc(c23)N[C@@H]1c1ccc(F)cc1 + Cc1cnc(CNC(=O)c2c(=O)c3ccc(N4CCCN(C)CC4)nc3n3c2sc2ccccc23)cn1
- viability, T/C (second compound 0.0316 µM, first compound 0.000999 µM): 94.1%
- viability, T/C (second compound 0.0316 µM, first compound 0.00316 µM): 116%
- viability, T/C (second compound 0.0316 µM, first compound 0.00999 µM): 125%
- viability, T/C [1]: 87.5%
- viability, T/C (second compound 0.0316 µM, first compound 0.0999 µM): 108%
- viability, T/C [2]: 105%
- viability, T/C (second compound 0.1 µM, first compound 0.000999 µM): 97.2%
- viability, T/C (second compound 0.1 µM, first compound 0.00316 µM): 96.2%
- viability, T/C (second compound 0.1 µM, first compound 0.00999 µM): 91.4%
- viability, T/C [3]: 122%
- viability, T/C (second compound 0.1 µM, first compound 0.0999 µM): 121%
- viability, T/C [4]: 90.3%
- viability, T/C (second compound 0.316 µM, first compound 0.000999 µM): 93.4%
- viability, T/C (second compound 0.316 µM, first compound 0.00316 µM): 91.2%
- viability, T/C (second compound 0.316 µM, first compound 0.00999 µM): 88.3%
- viability, T/C [5]: 99.1%
- viability, T/C (second compound 0.316 µM, first compound 0.0999 µM): 111%
- viability, T/C [6]: 105%
- viability, T/C (second compound 1 µM, first compound 0.000999 µM): 90.9%
- viability, T/C (second compound 1 µM, first compound 0.00316 µM): 96.9%
- viability, T/C (second compound 1 µM, first compound 0.00999 µM): 84.2%
- viability, T/C [7]: 104%
- viability, T/C (second compound 1 µM, first compound 0.0999 µM): 83.2%
- viability, T/C [8]: 94.1%
- viability, T/C (second compound 3.16 µM, first compound 0.000999 µM): 85.3%
- viability, T/C (second compound 3.16 µM, first compound 0.00316 µM): 82.3%
- viability, T/C (second compound 3.16 µM, first compound 0.00999 µM): 68.8%
- viability, T/C [9]: 91.2%
- viability, T/C (second compound 3.16 µM, first compound 0.0999 µM): 74.2%
- viability, T/C [10]: 92.1%
- viability, T/C (second compound 10 µM, first compound 0.000999 µM): 71.7%
- viability, T/C (second compound 10 µM, first compound 0.00316 µM): 60.6%
- viability, T/C (second compound 10 µM, first compound 0.00999 µM): 105%
- viability, T/C [11]: 61.1%
- viability, T/C (second compound 10 µM, first compound 0.0999 µM): 87.4%
- viability, T/C [12]: 61.8%

From PubChem BioAssay AID2060513 (Molecular Pharmacology Branch, DTP, NCI, 2025)
